The results in this text go back to patent publication US7683055B2, “Lanthionine-related compounds for the treatment of inflammatory diseases” (Oklahoma Medical Research Foundation, priority 2006, dated 2010).

The test system of one data set is G93A-SOD1 mice. The experiment in a line: G93A-SOD1 mouse model of ALS (rotarod, weight). In kind it is in vivo. To be noted: 100 mg/kg i.p. 5 days/week from day 90. The text has this: Transgenic mice. Mice expressing high copy numbers of human mutant G93A-SOD1 (SOD1^G93A mice) were obtained from Jackson Laboratories [Bar Harbor Me. USA; strain designation B6SJL-TgN-(SOD1 G93A)-1-Gur] (Hensley et al., 2002; Hensley et al., 2003; West et al., 2004; Hensley et al., 2006). Transgenic mice were maintained in the hemizygous state by mating SOD1^G93A males with B6SJL-TGN females. Animals were housed in the Oklahoma Medical Research Foundation Laboratory Animal Resource Center.
Mice were trained to a rotarod task at 80 d of age. In this task mice were placed on a horizontal rod that rotates with acceleration at 10 rpm from rest (Hensley et al., 2002; Hensley et al., 2003; West et al., 2004). The time was recorded at which each mouse fell from the rotarod and the test was repeated four times on each trial date. The closest three performance times were averaged for each mouse on each day. For experimental drug treatments mice were injected with LKE at 100 mg/kg/day i.p. Monday-Friday beginning at 90 d. Control animals received saline vehicle. Rotarod performance and weights were recorded at 10 day intervals until death. Animals were euthanized when unable to right themselves within 10 seconds of being placed on their side, or when unable to perform the rotarod task.
(Falling from the rotarod earlier than controls is read as motor impairment.)

Another data set has as its system EOC-20 microglial cells. Kind of data set: LPS-stimulated nitrite production in EOC-20 microglia. In kind it is cell-based, mouse. The method, then:
In some embodiments, the compounds of the invention function is a cell-type specific, stimulus-specific, or condition-specific fashion. […] In contrast, when EOC-20 cells or RAW264.7 macrophages were stimulated with bacterial lipopolysaccharide (LPS; E. coli serotype 0127:B8) for 24-48 h and nitrite and cell viability were assessed. LKE inhibited cytokine-induced nitrite accumulation with a similar efficacy in both cell types (see FIGS. 9A & 9B).
(§1) Mouse EOC-20 microglia (American Tissue Type Collection, Gaithersville Md. USA) (Hensley et al., 2003; Walker et al., 1995) were grown in DMEM containing 20% L929 fibroblast-supplemented medium. Nitrite production by cytokine stimulated microglia was measured in cell culture medium using the Griess diazotization reaction as previously reported (Hensley et al., 2003; West et al., 2004).

The subject of another data set is EOC-20 microglia. The experiment in a line: TNFα-stimulated nitrite production in EOC-20 microglia (Griess assay). The class given is cell-based, mouse. As to the method: as §1
The efficacy of (R)-LKE1 and (R)-LK as inhibitors of microglial cell activation in response to pro-inflammatory cytokines is shown in FIGS. 1A & 1B. EOC-20 murine microglial cells were pretreated 30 minutes with test compounds (e.g. (R)-LK or (R)-LKE1) dissolved in DMSO and diluted 1:200 into cell culture medium; or with DMSO vehicle only. Cells were then challenged with cytokine and allowed to incubate undisturbed in the cell culture incubator for 24 h prior to Griess assay. The lanthionine ketimine ester in this case is the structure shown above as (R)-LKE1. After drug treatment cells were then stimulated with 40 ng/mL recombinant murine tumor necrosis factor alpha (TNF α) plus 50U/mL interferon gamma (IFNγ). Nitrite (NO2^−) was measured in the cell culture medium 24 hours later, as an index of nitric oxide production. Cell viability was then assayed in the same cultures using a commercially available tetrazolium reduction assay (Promega OneStep™; Promega, Gaithersburg Md.). Cell culture methods were those published by the inventor (Hensley et al., 2003; West et al., 2004).
In a EOC-20 microglial assay the cells were stimulated with TNFα in the presence or absence of 100 microM (R)- or (S)-LK, and nitrite was measured 24 h later, the net suppression of nitrite was 13% by (S)-LK and 15% by (R)-LK.
The reduced lanthionine ketimine (i.e., TMDCA) was also tested against TNFα-stimulated nitrite production in the EOC-20 screen.
(In general: The Griess reaction detects nitrite, a stable product of nitric oxide.)

The subject of the next data set is C6 glioma cells. The experiment in a line: C6 glioma cells implanted in rat neocortex. The class given is in vivo, Sprague-Dawley rats. Particulars: 100 mg/day, 7 days/week from implantation. The method, then:
FIG. 16. […] 100,000 C6 glioma cells were implanted in the neocortex of adult male Sprague-Dawley rats. The test group was administered (R)-LKE1 in saline 100 mg/day at each of 7 days/week starting the day of implantation.

In a further data set the test system is NSC-34 cells. Kind of data set: NSC-34 viability after glutamate and/or Ca2+ exposure. Particulars: 1 mM L-glutamate, 1 mM CaCl2 or both, four days. In kind it is cell-based, mouse. The method, then:
NSC-34 motor neuron x neuroblastoma cells were treated with 1 mM L-glutamate, 1 mM CaCl2, or both for four days. (R)-LKE1 was added at t=0 and at t=48 hours, at the indicated concentrations. At the end of four days (t=96 hours) cell viability was assayed by measuring tetrazolium reduction rates using a commercially available kit (Promega).

Take `CCOC(=O)[C@@H]1CSCC(C(=O)O)=N1` [(R)-LKE1]: in the data set with G93A-SOD1 mice, the rotarod performance entry is on record as “improved” and the weight loss entry was “inhibited weight loss”. Besides, in the data set on EOC-20 microglial cells (EOC-20 cells or RAW264.7 macrophages, LPS 24-48 h), the “cytotoxicity (cell viability)” value is “No cytotoxicity was observed”. In the data set with EOC-20 microglial cells (EOC-20 microglial cells, LPS), the “inhibition of LPS-stimulated nitric oxide production” value is reported as “inhibited LPS stimulated nitric oxide production”. In addition, the “potency at suppressing cytokine activation relative to unesterified lanthionine ketimine” value with EOC-20 microglia (FIG. 1A) is on record as “statistically significantly more potent”. Also, the “inhibition of nitrite production” value with EOC-20 microglia (TNFα-stimulated EOC-20 microglia) is given as “inhibited nitrite production”. In addition, the tumor cell proliferation result with C6 glioma cells is listed as “inhibits tumor cell proliferation”. Moreover, the “viability of cells exposed to glutamate and/or Ca2+” value with NSC-34 cells was “increases the viability”.
